# Values quoted from earlier work in US20070185035A1, “ENHANCED MUCOSAL ADMINISTRATION OF NEUROPROTECTIVE PEPTIDES” (Nastech Pharmaceutical Company Inc., priority 2005, published 2007).
# Like-named read-outs stand apart in the source and are kept apart here.
# How the values were obtained:
# [1] = system: ciliary motility; conditions: without obvious ultrastructural lesions
# [2] = system: aminopeptidases
# [3] = anesthetized rats
compound,measurement,setting,value
2-alkyl-4-hydroxyquinolines [pyo compound],concentration producing ciliostasis,[1],50 µg/mL
CC(C)CC(N)B(O)O (centres unmarked) [boro-leucine],effectiveness in enzyme inhibition relative to bestatin,[2],more than 100 times
same,effectiveness in enzyme inhibition relative to puromycin,[2],more than 1000 times
human growth hormone: human growth hormone given nasally to rats with or without N-acetyl-L-cysteine,nasal bioavailability,[3]; with N-acetyl-L-cysteine (ACS),12.2%
same,nasal bioavailability,[3]; without N-acetyl-L-cysteine,7.5%
